Active and inactive are the calls of the source. The rule behind the calls is not given here.
Legend:
Canis familiaris [1] = assay: Effect on overt behavior in dog assessed as prostration at 4 to 10 mg/kg, iv; type: organism-based, Canis lupus familiaris; design: dose 4-10 mg/kg, route intravenous; conditions: in vivo
Canis familiaris [2] = assay: Effect on overt behavior in dog assessed as hyperreflexia at 0.05 to 10 mg/kg, iv; type: organism-based, Canis lupus familiaris; design: dose 0.05-10 mg/kg, route intravenous; conditions: in vivo
Canis familiaris [3] = assay: Effect on overt behavior in dog assessed as static ataxia at 0.05 to 10 mg/kg, iv; type: ADME, organism-based, Canis lupus familiaris; design: dose 0.05-10 mg/kg, route intravenous; conditions: in vivo
Mus musculus [4] = assay: Analgesic activity in mouse at 50 mg/kg, sc by hot plate test; type: functional, organism-based; design: dose 50 mg/kg
Canis familiaris [5] = assay: Effect on overt behavior in dog assessed as depression at 0.05 to 10 mg/kg, iv; type: organism-based, Canis lupus familiaris; design: dose 0.05-10 mg/kg, route intravenous; conditions: in vivo
Mus musculus [6] = assay: Analgesic activity in sc dosed mouse by hot plate test; type: functional
Mus musculus [7] = assay: Analgesic activity in mouse at 10 mg/kg, sc by tail-flick test; type: functional, organism-based; design: dose 10 mg/kg
Mus musculus [8] = species on record: Mus musculus; assay: Analgesic activity in mouse by tail-flick test relative to morphine; type: functional
Mus musculus [9] = species on record: Mus musculus; assay: Analgesic activity in mouse assessed as inhibition of p-phenylquinone-induced writhing relative to morphine; type: functional
Mus musculus [10] = species on record: Mus musculus; assay: animal or person; type: functional; conditions: Tail, sc
Mus musculus [11] = assay: Analgesic activity in mouse at 20 mg/kg, sc by hot plate test; type: functional, organism-based; design: dose 20 mg/kg

Row | Structure (SMILES) | Activity (Canis familiaris [1]) | Activity (Canis familiaris [2]) | Activity (Canis familiaris [3]) | ED50 (Mus musculus [6]) [mg/kg] | other results
1 | CCCCCc1cc(O)c2c(c1)OC(C)(C)[C@@H]1CC[C@@H](O)C=C21 (racemic) | Toxic | Toxic | Toxic |  | Activity (Mus musculus [4]): inactive
2 | CCCCCc1cc(O)c2c(c1)OC(C)(C)[C@@H]1CC[C@H](O)C[C@@H]21 | Toxic |  |  |  | 
3 | CCCCCc1cc(O)c2c(c1)OC(C)(C)c1ccc(O)cc1-2 | Toxic | Non-toxic | Non-toxic | 35.6 | Activity (Canis familiaris [5]): Toxic; Activity (Mus musculus [7]): inactive
4 | CCCCCc1cc(O)c2c(c1)OC(C)(C)C1CCC(O)CC21 (racemic) | Toxic |  |  | 2.9 | 
5 | CCCCCc1cc(O)c2c(c1)OC(C)(C)[C@@H]1CC[C@@H](O)C[C@@H]21 | Toxic |  |  | 1.6 | fold change (FC) (Mus musculus [8]): 5; fold change (FC) (Mus musculus [9]): 20; ED50 (Mus musculus [10]): 1 mg/kg
6 | CCCCCc1cc(O)c2c3c(c(=O)oc2c1)CCC(O)C3 (racemic) | Toxic | Non-toxic | Non-toxic |  | Activity (Canis familiaris [5]): Toxic; Activity (Mus musculus [11]): inactive
7 | CN1CC[C@]23c4c5ccc(O)c4O[C@H]2[C@@H](O)C=C[C@H]3[C@H]1C5.Cl [MORPHINE HYDROCHLORIDE] |  |  |  | 1.2 | 
8 | CCCCCc1cc(O)c2c(c1)OC(C)(C)[C@H]1CC[C@H](O)C[C@H]21 | Toxic |  |  |  | 
9 | CCCCCc1cc(O)c2c(c1)OC(C)(C)[C@@H]1CCC(C)=C[C@@H]21 [DRONABINOL] | Toxic |  |  |  | 
10 | CCCCCc1cc(O)c2c(c1)OC(C)(C)C1=C2CC(O)CC1 (racemic) | Toxic | Toxic | Toxic |  | Activity (Mus musculus [4]): inactive
